These results are taken from ChEMBL document CHEMBL6078727 (Bioorg Med Chem, 2025).

Calls of active or inactive are those of the source. The rule behind the calls is not given here.

Data set [1] can be described thus: (§1) Induction of mitochondrial uncoupling activity in rat L6 myoblast cells assessed as increase in oxygen consumption rate by measuring ratio of integrated area under OCR dose curve above baseline relative to BAM15 up to 200 uM over 90 mins. The class given is functional.
The nature of data set [2]: Induction of mitochondrial uncoupling activity in rat L6 myoblast cells assessed as increase in oxygen consumption rate measured over 90 mins. The class given is functional, cell-based.
The nature of data set [3]: Cmax in C57BL/6J mouse at 10 mg/kg, po administrated via oral gavage by LC-MS/MS analysis. As to conditions: in vivo. The class given is ADME, organism-based.
Data set [4] in a line: Half-life in male C57BL/6J mouse plasma at 10 mg/kg, po administrated via oral gavage by LC-MS/MS analysis. The class given is ADME, organism-based. As to conditions: in vivo.
The test system of data set [5] is L6. The data set is described as §1. The class given is functional.

A word on the EC50: it is the concentration at which the effect is half-maximal. As to `O=C(ONc1nc2nonc2nc1Nc1ccccc1F)c1ccc(F)cc1F`, in data set [1], the Activity is 97%. In data set [2], the EC50 stood at 1.36 µM.

In the case of `ONc1nc2nonc2nc1Nc1ccccc1F`, the Activity in data set [1] amounted to 41%. Further, in data set [2], the EC50 came out at 87.6 µM.

On to `CC(C)(C)OC(=O)NNc1nc2nonc2nc1Nc1cccc(Cl)c1`, for which the Activity in data set [1] worked out at 78%. Also, in data set [2], the EC50 amounted to 1.6 µM.

Take `CN(Nc1nc2nonc2nc1Nc1ccccc1F)C(=O)OC(C)(C)C`: the Activity in data set [1] is 65%. Moreover, the EC50 in data set [2] came to 8.4 µM.

For `O=C(NNc1nc2nonc2nc1Nc1ccccc1F)c1ccc(OC(F)(F)F)cc1`, in data set [1], the Activity was 6%. The EC50 in data set [2] was found to be 4.3 µM.

For `CCCCC(=O)NNc1nc2nonc2nc1Nc1ccccc1F`, in data set [1], the Activity is recorded as 71%. Also, the EC50 in data set [2] worked out at 14.2 µM.

Turning to `O=C(ONc1nc2nonc2nc1Nc1ccccc1F)c1cccc(C(F)(F)F)c1`, the Activity in data set [1] is reported as 71%. In data set [2], the EC50 is 1.58 µM.

As to `O=C(ONc1nc2nonc2nc1Nc1ccccc1F)c1ccccc1F`, the Activity in data set [1] came to 45%. In data set [2], the EC50 was > 100 µM.

The Cmax is the peak of the concentration-time curve. In data set [3] (po, 10 mg/kg), `CC(C)(C)OC(=O)NNc1nc2nonc2nc1Nc1ccccc1F` displayed a Cmax of 220 nM. In data set [4], this molecule yielded a t1/2 of 27 min. Further, the Activity in data set [1] was found to be 103%. The EC50 in data set [2] came out at 4.6 µM.

Regarding `CNNc1nc2nonc2nc1Nc1ccccc1F`, the Activity in data set [1] was 15%. In data set [2], the EC50 stood at 77 µM.

On to `CCCC(=O)NNc1nc2nonc2nc1Nc1ccccc1F`, for which, in data set [1], the Activity came out at 31%. Moreover, the EC50 in data set [2] is > 100 µM.

On to `Cc1cc(C)cc(C(=O)ONc2nc3nonc3nc2Nc2ccccc2F)c1`, for which, in data set [1], the Activity turned out to be 9%. In data set [2], the EC50 is 1.49 µM.

Turning to `CC(C)(C)OC(=O)NNc1nc2nonc2nc1Nc1cccc(F)c1`, the Activity in data set [1] is on record as 32%. The EC50 in data set [2] was 1.1 µM.

For `O=C(ONc1nc2nonc2nc1Nc1ccccc1F)c1ccccc1C(F)(F)F`, the Activity in data set [1] is recorded as 65%. Further, the EC50 in data set [2] amounted to 6.56 µM.

In the case of `CCCCOC(=O)NNc1nc2nonc2nc1Nc1ccccc1F`, the Activity in data set [1] was 54%. For the same molecule, the EC50 in data set [2] worked out at 1.2 µM.

As to `CC(C)COC(=O)NNc1nc2nonc2nc1Nc1ccccc1F`, the highest level in data set [3] (po, 10 mg/kg) (Cmax) was 6600 nM. In data set [4], the t1/2 came out at 35.4 min. Moreover, in data set [1], the Activity is reported as 88%. For the same molecule, the EC50 in data set [2] came to 1.1 µM.

As for `O=C(NNc1nc2nonc2nc1Nc1ccccc1F)NC1CCCC1`, the Activity in data set [1] was 23%. The EC50 in data set [2] came to 1.1 µM.

As for `O=C(ONc1nc2nonc2nc1Nc1ccccc1F)c1cc(C(F)(F)F)ccc1F`, the Activity in data set [1] turned out to be 75%. Further, the EC50 in data set [2] is 1.4 µM.

`Cc1ccc(Nc2nc3nonc3nc2NO)cc1`: in data set [5], the outcome was inactive.

`CC(C)(C)C(=O)ONc1nc2nonc2nc1Nc1ccccc1F`: the Activity in data set [1] is 86%. In data set [2], the EC50 is 5.2 µM.

Take `CCOC(=O)NNc1nc2nonc2nc1Nc1ccccc1F`: the Activity in data set [1] came to 65%. Besides, in data set [2], the EC50 turned out to be 16.3 µM.

As to `NNc1nc2nonc2nc1Nc1ccccc1F`, the outcome in data set [5] was inactive.

For the molecule `ONc1nc2nonc2nc1Nc1ccc(-c2ccc(F)cc2)cc1`, in data set [5], the outcome was inactive.

With `ONc1nc2nonc2nc1Nc1cc(F)cc(F)c1`, the outcome in data set [5] was inactive.

Take `O=C(NNc1nc2nonc2nc1Nc1ccccc1F)c1cccc(F)c1`: in data set [1], the Activity worked out at 8%.

Turning to `O=C(ONc1nc2nonc2nc1Nc1ccccc1F)c1cccc(F)c1`, the Activity in data set [1] came to 102%. In data set [2], the EC50 is 0.71 µM.

Molecule `O=C(ONc1nc2nonc2nc1Nc1ccccc1F)c1ccc(OC(F)(F)F)cc1` showed a Cmax in data set [3] (C57BL/6J) of 2 nM. For the same molecule, the t1/2 in data set [4] worked out at 15 min. Also, the Activity in data set [1] was found to be 118%. For the same molecule, in data set [2], the concentration giving a half-maximal response (EC50) was determined as 0.34 µM.

On to `CC(C)(C)OC(=O)NNc1nc2nonc2nc1Nc1ccccc1Cl`, for which the concentration in data set [3] (po, 10 mg/kg) peaked (Cmax) at 170 nM. The molecule further yielded a t1/2 in data set [4] of 108 min. The Activity in data set [1] is reported as 87%. Besides, in data set [2], the EC50 amounted to 4.6 µM.
